Assay results from paper PMC5719405, “Sex-related pharmacokinetic differences and mechanisms of metapristone (RU486 metabolite)” (Scientific Reports, 2017).
Like-named read-outs stand apart in the source and are kept apart here.

Legend:
[1] = tested on: cancer cells; settings: cited from earlier work
[2] = Single oral dose pharmacokinetics of metapristone in beagle dogs, non-compartmental analysis; type: in vivo; settings: for AUC(0-inf) / AUC(0-t) / CL/F / Cmax / Tmax / Vd/F / half-life / MRT last: beagle, dog, plasma, po; for MRT last: read-out: MRT (0-t)
Description: (§1) For pharmacokinetic study, rats were fasted overnight with free access to water using procedures reported previously. Ninety-six SD rats (forty-eight males and forty-eight females) were randomly divided into […] single-dose groups. Rats (six animals/sex/dose) were given a single oral dose of 22.5, 45 and 90 mg/kg metapristone (in soybean oil solution) by intragastric administration or 10 mg/kg metapristone by intravenous bolus injection. Rat blood samples (0.25 mL) were collected from the ocular vein into heparinized tubes prior to and at 0 (before administration), 0.5, 1.0, 1.5, 2.0, 4.0, 6.0, 8.0, 12, 24, 36 and 48 h post-dosing in female rats or 0.5, 1.0, 1.5, 2.0, 4.0, 6.0, 8.0, 12, 24, 30 and 36 h post-dosing in male rats. In the repeated dose study twenty-four rats (six animals/sex/dose) received the same dosing regimen at 45 mg/kg metapristone for 10 days. Blood samples were collected after oral administration on day 1 and 10 at T max. The samples were stored at −80 °C until analysis. Beagle dogs (three animals/sex/dose) were dosed by gavage at 5.62, 11.25, 22.5 mg/kg metapristone (in soybean oil solution). Dog blood (0.25 mL) was withdrawn from the jugular vein at 0.5, 1.0, 2.0, 4.0, 6.0, 8.0, 10, 12, 24 and 48 h after a single oral administration.
The plasma samples obtained by centrifugation at 4000 g for 10 min and stored at −80 °Cuntil analysis. To each 100 µL of plasma sample, 50 µL of internal standard solution were added. Metapristone was then separated and analyzed by the LC/MS/MS method according to the previously described procedures. Peak area ratios of metapristone to the internal standard were plotted against theoretical concentrations. The maximum plasma concentration (C max), the time to reach C max (T max) were determined directly from experimental data. The other pharmacokinetic parameters such as elimination half-life (t 1/2), and mean residence time (MRT) were calculated by using the non-compartmental pharmacokinetics data analysis software of DAS version 3.2 (Bio Guider Co., Shanghai, China). The area under the plasma concentration-time curve from zero to infinity was calculated by using the linear trapezoidal rule with extrapolation to infinity with terminal constant eliminate rate (k e). Bioavailability was calculated as (AUCp.o./AUCi.v.) x (dosei.v./ dosep.o.) 100% as we previously described.

[3] = Repeated 10-day oral dosing, accumulation of metapristone in blood; type: in vivo; settings: rats, 45 mg/kg/day p.o. for 10 days, 6 h post dosing
Description: In order to determine whether metapristone accumulated in blood over a long period of multiple dose administration, metapristone levels in blood were monitored at 6 h post dosing on day 1 and 10 during a consecutive 10-day oral dosing period with metapristone at 45 mg/kg/day.
as §1, with “Beagle dogs (three animals/sex/dose) were dosed by gavage at 5.62, 11.25, 22.5 mg/kg metapristone (in soybean oil solution). Dog blood (0.25 mL) was withdrawn from the jugular vein at 0.5, 1.0, 2.0, 4.0, 6.0, 8.0, 10, 12, 24 and 48 h after a single oral administration.” left out

[4] = 5.62, 11.25 and 22.5 mg/kg p.o.

Q: For `CC#C[C@]1(O)CC[C@H]2[C@@H]3CCC4=CC(=O)CCC4=C3[C@@H](c3ccc(NC)cc3)C[C@@]21C` [metapristone, N-monodemethyl mifepristone], which “effect on cancer cells” value [1] is on record?
A: cytostatic effect

Q: What about the “C max and AUC in female dogs relative to male dogs (greater)” value [2, 4] of the same molecule?
A: 1–2.4 fold

Q: And the “CL/F in female dogs relative to male dogs (lower)” value [2, 4]?
A: 1.5–3.6 fold

Q: And the “V d /F in female dogs relative to male dogs (lower)” value [2, 4]?
A: 1.3–2.38 fold

Q: And the AUC(0-inf) ([2]; female dogs, p.o. 5.6 mg/kg)?
A: 580 ± 120 ng·h/mL

Q: What about the AUC(0-t) ([2]; female dogs, p.o. 5.6 mg/kg) of the same molecule?
A: 560 ± 110 ng·h/mL

Q: And the CL/F ([2]; female dogs, p.o. 5.6 mg/kg)?
A: 165 mL/min/kg

Q: What about the Cmax ([2]; female dogs, p.o. 5.6 mg/kg) of the same molecule?
A: 70 ± 10 ng/mL

Q: What about the Tmax ([2]; female dogs, p.o. 5.6 mg/kg) of the same molecule?
A: 1.67 ± 0.57 h

Q: And the Vd/F ([2]; female dogs, p.o. 5.6 mg/kg)?
A: 126 ± 7.1 L/kg

Q: What about the half-life ([2]; female dogs, p.o. 5.6 mg/kg) of the same molecule?
A: 8.05 ± 1.12 h

Q: And the MRT last ([2]; female dogs, p.o. 5.6 mg/kg)?
A: 7.23 ± 1.69 h

Q: And the AUC(0-inf) ([2]; female dogs, p.o. 11.25 mg/kg)?
A: 1330 ± 110 ng·h/mL

Q: What about the AUC(0-t) ([2]; female dogs, p.o. 11.25 mg/kg) of the same molecule?
A: 1280 ± 100 ng·h/mL

Q: And the CL/F ([2]; female dogs, p.o. 11.25 mg/kg)?
A: 141 mL/min/kg

Q: What about the Cmax ([2]; female dogs, p.o. 11.25 mg/kg) of the same molecule?
A: 190 ± 30 ng/mL

Q: And the Tmax ([2]; female dogs, p.o. 11.25 mg/kg)?
A: 1.67 ± 0.57 h

Q: What about the Vd/F ([2]; female dogs, p.o. 11.25 mg/kg) of the same molecule?
A: 105 ± 9.17 L/kg

Q: What about the half-life ([2]; female dogs, p.o. 11.25 mg/kg) of the same molecule?
A: 8.57 ± 1.12 h

Q: And the MRT last ([2]; female dogs, p.o. 11.25 mg/kg)?
A: 8.62 ± 0.56 h

Q: What about the AUC(0-inf) ([2]; female dogs, p.o. 22.5 mg/kg) of the same molecule?
A: 2560 ± 210 ng·h/mL

Q: What about the AUC(0-t) ([2]; female dogs, p.o. 22.5 mg/kg) of the same molecule?
A: 2400 ± 150 ng·h/mL

Q: And the CL/F ([2]; female dogs, p.o. 22.5 mg/kg)?
A: 147 mL/min/kg

Q: What about the Cmax ([2]; female dogs, p.o. 22.5 mg/kg) of the same molecule?
A: 380 ± 10 ng/mL

Q: What about the Tmax ([2]; female dogs, p.o. 22.5 mg/kg) of the same molecule?
A: 1.66 ± 0.57 h

Q: And the Vd/F ([2]; female dogs, p.o. 22.5 mg/kg)?
A: 89.2 ± 14.1 L/kg

Q: What about the half-life ([2]; female dogs, p.o. 22.5 mg/kg) of the same molecule?
A: 7.19 ± 2.83 h

Q: And the MRT last ([2]; female dogs, p.o. 22.5 mg/kg)?
A: 7 ± 0.61 h

Q: And the AUC(0-inf) ([2]; male dogs, p.o. 5.6 mg/kg)?
A: 230 ± 50 ng·h/mL

Q: What about the AUC(0-t) ([2]; male dogs, p.o. 5.6 mg/kg) of the same molecule?
A: 210 ± 30 ng·h/mL

Q: And the CL/F ([2]; male dogs, p.o. 5.6 mg/kg)?
A: 266 mL/min/kg

Q: What about the Cmax ([2]; male dogs, p.o. 5.6 mg/kg) of the same molecule?
A: 50 ng/mL

Q: And the Tmax ([2]; male dogs, p.o. 5.6 mg/kg)?
A: 2 h

Q: What about the Vd/F ([2]; male dogs, p.o. 5.6 mg/kg) of the same molecule?
A: 187 ± 8.21 L/kg

Q: What about the half-life ([2]; male dogs, p.o. 5.6 mg/kg) of the same molecule?
A: 8.18 ± 2.9 h

Q: What about the MRT last ([2]; male dogs, p.o. 5.6 mg/kg) of the same molecule?
A: 7.16 ± 1.12 h

Q: What about the AUC(0-inf) ([2]; male dogs, p.o. 11.25 mg/kg) of the same molecule?
A: 770 ± 110 ng·h/mL

Q: What about the AUC(0-t) ([2]; male dogs, p.o. 11.25 mg/kg) of the same molecule?
A: 750 ± 100 ng·h/mL

Q: What about the CL/F ([2]; male dogs, p.o. 11.25 mg/kg) of the same molecule?
A: 241 mL/min/kg

Q: What about the Cmax ([2]; male dogs, p.o. 11.25 mg/kg) of the same molecule?
A: 150 ± 30 ng/mL

Q: What about the Tmax ([2]; male dogs, p.o. 11.25 mg/kg) of the same molecule?
A: 2 h

Q: And the Vd/F ([2]; male dogs, p.o. 11.25 mg/kg)?
A: 136 ± 13.1 L/kg

Q: And the half-life ([2]; male dogs, p.o. 11.25 mg/kg)?
A: 5.54 ± 2.3 h

Q: And the MRT last ([2]; male dogs, p.o. 11.25 mg/kg)?
A: 5.68 ± 1.1 h

Q: What about the AUC(0-inf) ([2]; male dogs, p.o. 22.5 mg/kg) of the same molecule?
A: 1600 ± 340 ng·h/mL

Q: And the AUC(0-t) ([2]; male dogs, p.o. 22.5 mg/kg)?
A: 1560 ± 310 ng·h/mL

Q: And the CL/F ([2]; male dogs, p.o. 22.5 mg/kg)?
A: 210 mL/min/kg

Q: What about the Cmax ([2]; male dogs, p.o. 22.5 mg/kg) of the same molecule?
A: 300 ± 20 ng/mL

Q: What about the Tmax ([2]; male dogs, p.o. 22.5 mg/kg) of the same molecule?
A: 2 h

Q: And the Vd/F ([2]; male dogs, p.o. 22.5 mg/kg)?
A: 123 ± 15 L/kg

Q: And the half-life ([2]; male dogs, p.o. 22.5 mg/kg)?
A: 6.79 ± 2.81 h

Q: What about the MRT last ([2]; male dogs, p.o. 22.5 mg/kg) of the same molecule?
A: 6.18 ± 0.34 h

Q: And the “increase of Cmax for female dogs versus male dogs” value ([2]; p.o. 5.6 mg/kg)?
A: 40%

Q: And the “accumulation of metapristone in blood, day 10 versus day 1” value [3]?
A: about 6 fold
